SMILES strings stand for the structures.

This note sets out measurements from ChEMBL document CHEMBL3351383, “Combination of chiral linkers with thiophenecarboximidamide heads to improve the selectivity of inhibitors of neuronal nitric oxide synthase” (Bioorg Med Chem Lett, 2014).

Assay [1] in a line: Selectivity index, ratio of Ki for mouse macrophage iNOS to KI for rat nNOS.
Assay [2] can be described thus: Selectivity index, ratio of Ki for bovine eNOS to KI for rat nNOS.

For `N=C(Nc1ccc(OC[C@@H]2C[C@@H](Oc3cccc(NC(=N)c4cccs4)c3)CN2)cc1)c1cccs1`, the Ratio Ki is 163 in assay [1] and 142 in assay [2].

As to `N=C(Nc1cccc(O[C@H]2CN[C@H](COCc3cccc(F)c3)C2)c1)c1cccs1`, the Ratio Ki worked out at 90 in assay [1] and 86 in assay [2].

On to `N=C(Nc1cccc(OC[C@@H]2C[C@@H](OCc3cccc(F)c3)CN2)c1)c1cccs1`, for which the Ratio Ki in assay [1] turned out to be 92; in assay [2], 18.
